The values that follow come from publication PMC12269599, “Analysis of chondroitin degradation by components of a Bacteroides caccae polysaccharide utilization locus” (The Journal of Biological Chemistry, 2025).

The term stoichiometry N denotes the number of molecules, sites or subunits per partner or assembly.

The target in one assay is T1, BcGH88 (Bacteroides caccae, UniProt A0A413IVG2).
T1 construct: residues 31-433, N-terminal His6 tag with thrombin site, E. coli
T1 sequence (A0A413IVG2 31-433): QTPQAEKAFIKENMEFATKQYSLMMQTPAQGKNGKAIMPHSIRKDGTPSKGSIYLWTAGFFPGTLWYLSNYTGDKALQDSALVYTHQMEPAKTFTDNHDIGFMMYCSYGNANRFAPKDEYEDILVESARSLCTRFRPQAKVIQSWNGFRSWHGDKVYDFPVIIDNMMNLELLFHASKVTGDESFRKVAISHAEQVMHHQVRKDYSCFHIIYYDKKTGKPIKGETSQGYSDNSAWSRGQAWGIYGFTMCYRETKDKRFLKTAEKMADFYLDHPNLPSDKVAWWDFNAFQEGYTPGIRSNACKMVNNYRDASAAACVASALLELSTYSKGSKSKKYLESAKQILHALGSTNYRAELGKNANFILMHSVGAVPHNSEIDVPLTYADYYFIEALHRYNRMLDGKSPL
Kind of assay: loss of absorbance at […] nm. The class given is biochemical. As to conditions: only kcat/Km determined; 100 mM Tris pH 7.4, 37 °C.

In the next assay the target is T2, BcGDH (GH154, BcGH154) (Bacteroides caccae, UniProt I9ECR6).
T2 construct: gene HMPREF1061_03832; residues 24-423, N-terminal His6-thrombin tag (cleaved for crystallography), E. coli, homotetramer; site completed by Y401 of a neighbouring monomer
T2 sequence (I9ECR6 24-423): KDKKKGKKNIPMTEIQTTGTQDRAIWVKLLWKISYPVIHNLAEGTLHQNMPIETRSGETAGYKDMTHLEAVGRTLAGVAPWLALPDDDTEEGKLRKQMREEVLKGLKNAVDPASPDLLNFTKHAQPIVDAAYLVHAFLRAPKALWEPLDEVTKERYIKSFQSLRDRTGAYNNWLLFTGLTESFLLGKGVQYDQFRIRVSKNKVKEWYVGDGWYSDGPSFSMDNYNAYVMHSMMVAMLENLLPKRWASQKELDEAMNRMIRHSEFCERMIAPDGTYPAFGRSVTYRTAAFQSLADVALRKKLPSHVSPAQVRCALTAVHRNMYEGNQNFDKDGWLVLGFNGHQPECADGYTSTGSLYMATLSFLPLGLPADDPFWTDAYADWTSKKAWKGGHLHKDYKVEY
Kind of assay: absorbance at […] nm; LC-ESI-MS of product. The format is biochemical. The note with it: dehydration to 4,5-unsaturated product; only kcat/Km determined; 100 mM Tris pH 7.4, 25 °C.

In assay [1] the target is BcGDH (β-D-glucuronate dehydratase from Bacteroides caccae PUL25, previously classified as GH154) (Bacteroides caccae (strain ATCC 43185)). Kind of assay: crystal structure; unliganded BcGDH, spacegroup P2_(1), tetramer in the asymmetric unit; crystals at 18 °C from 26 g/L protein, 220 mM KCl, 24% PEG 3350; the same tetramer seen in four further unrefined crystal forms.
Assay [2] deals with BcGDH R285A mutant (Bacteroides caccae (strain ATCC 43185)). Kind of assay: crystal structure; BcGDH R285A soaked in 50 mM chondrosine, spacegroup P2_(1)2_(1)2_(1), tetramer in the asymmetric unit; 18 g/L protein, 0.25 M sodium iodide, 5 to 13% glycerol, 8 to 13% PEG 3350.

With `CC(=O)N[C@H]1C(O)O[C@H](CO)[C@H](O)[C@@H]1O[C@@H]1OC(C(=O)O)=C[C@H](O)[C@H]1O` (some centres unmarked) [CSΔ0S], the “loss of absorbance at 232 nm” value at BcGH88 was “BcGH88 had activity on CSΔ0S and CSΔ6S with kcat/Km values”.

On to `CC(=O)N[C@H]1C(O)O[C@H](COS(=O)(=O)O)[C@H](O)[C@@H]1O[C@@H]1OC(C(=O)O)=C[C@H](O)[C@H]1O` (some centres unmarked) [CSΔ6S], for which the “loss of absorbance at 232 nm” value at BcGH88 was “BcGH88 had activity on CSΔ0S and CSΔ6S with kcat/Km values”.

In the case of `N[C@H]1C(O)O[C@H](CO)[C@H](O)[C@@H]1O[C@@H]1O[C@H](C(=O)O)[C@@H](O)[C@H](O)[C@H]1O` (some centres unmarked) [chondrosine], on BcGDH (GH154, BcGH154), the “absorbance at 232 nm; LC-ESI-MS of product” value is “The absorbance increased in a time-dependent manner, with the rate of increase dependent upon the chondrosine”.

In the case of “BcGDH (β-D-glucuronate dehydratase from Bacteroides caccae PUL25, previously classified as GH154) (enzyme)”, the stoichiometry N in assay [1] amounted to 4.

Compound BcGDH R285A mutant (enzyme) yielded a stoichiometry N in assay [2] of 4.
